Where two headings read alike, the source gives them in different places. Marks after values point to notes of the source that are not given here.
Tests used:
GIPR = molecular target: T1, GIPR (Homo sapiens, UniProt P48546); assay: In vitro cell activity, cAMP production in HEK293 cells expressing GIPR; type: cell-based
T1 construct: expressed in transfected cells; host or cells: HEK293 (HEK293-GIPR)
T1 sequence (P48546 22-466): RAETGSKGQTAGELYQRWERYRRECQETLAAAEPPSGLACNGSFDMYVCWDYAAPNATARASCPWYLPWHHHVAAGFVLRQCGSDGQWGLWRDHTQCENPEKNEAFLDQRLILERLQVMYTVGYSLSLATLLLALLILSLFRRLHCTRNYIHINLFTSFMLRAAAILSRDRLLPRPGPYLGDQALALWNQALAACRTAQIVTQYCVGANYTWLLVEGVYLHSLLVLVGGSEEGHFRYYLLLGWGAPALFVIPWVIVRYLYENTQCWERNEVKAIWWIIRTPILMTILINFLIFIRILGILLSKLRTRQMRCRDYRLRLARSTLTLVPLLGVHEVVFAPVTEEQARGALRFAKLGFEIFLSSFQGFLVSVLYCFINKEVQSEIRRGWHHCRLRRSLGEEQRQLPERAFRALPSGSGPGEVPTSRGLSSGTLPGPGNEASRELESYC
Summary of the method: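 cAMP accumulation is quantified by homogeneous TR-FRET (cAMP-d2 plus anti-cAMP cryptate) in GIPR-expressing HEK293 cells seeded from a 4×10^5 cells/mL suspension and treated with compound. The signal ratio is plotted against concentration and fitted to a four-parameter curve to give EC50.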

GLP-1R = molecular target: T2, GLP-1R (Homo sapiens, UniProt P43220); assay: In vitro cell activity, cAMP production in HEK293 cells expressing GLP-1R; type: cell-based
T2 construct: expressed in transfected cells; host or cells: HEK293 (HEK293-GLP-1R)
Summary of the method: (§1)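 Cells were plated at 4×10^5 cells/mL, and detection reagents (cAMP-d2, anti-cAMP cryptate, 1:1) were incubated 1 h at room temperature in the dark or overnight at 4 °C.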

GCGR = molecular target: T3, GCGR (Homo sapiens, UniProt P47871); assay: In vitro cell activity, cAMP production in HEK293 cells expressing GCGR; type: cell-based
T3 construct: expressed in transfected cells; host or cells: HEK293 (HEK293-GCGR)
Summary of the method: as §1

[1] = Pharmacokinetic study in rats, single subcutaneous injection; details: male, Sprague Dawley, rat, in vivo, sc
Procedure: The pharmacokinetic study of each polypeptide compound prepared in Example 1 was conducted using male Sprague Dawley rats. There were 3 male rats in each group. […] The dose was 50 nmol/kg, and a single subcutaneous injection was given (see Table 3 for specific peptide compounds). After administration, plasma was collected on the specified days and time points, and the concentration of each peptide compound in the plasma was detected by LC-MS/MS method. The pharmacokinetic parameters were obtained based on the concentration data, which were used to describe the pharmacokinetic properties of the peptide in rats after subcutaneous injection. Table 3: Summary of pharmacokinetic parameters of some triple-target peptides in rats

[2] = Glucose tolerance assessment in normal C57BL/6 mice (Example 4); type: in vivo
Summary of the method: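 Twelve hours after a single administration, mice were fasted 12 h and then given 2 g/kg glucose i.p. Tail-vein blood glucose was measured at baseline and at 15, 30, 60 and 90 min. AUC0–90min was calculated per dose group at 24 h post-dose.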

[3] = 50 nmol/kg single subcutaneous injection, plasma

T2 sequence (P43220 24-463, species assumed): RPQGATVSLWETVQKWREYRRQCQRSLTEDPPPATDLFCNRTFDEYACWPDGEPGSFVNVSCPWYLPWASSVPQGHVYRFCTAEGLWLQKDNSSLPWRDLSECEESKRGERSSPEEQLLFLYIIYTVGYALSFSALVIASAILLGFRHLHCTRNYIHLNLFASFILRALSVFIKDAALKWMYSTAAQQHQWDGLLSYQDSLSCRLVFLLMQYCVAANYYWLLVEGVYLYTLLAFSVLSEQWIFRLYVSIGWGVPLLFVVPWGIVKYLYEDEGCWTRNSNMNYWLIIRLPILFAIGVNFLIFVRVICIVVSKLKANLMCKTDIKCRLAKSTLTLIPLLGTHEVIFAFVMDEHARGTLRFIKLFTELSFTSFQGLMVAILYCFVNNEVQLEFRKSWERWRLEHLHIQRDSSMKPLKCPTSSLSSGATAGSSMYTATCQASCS
T3 sequence (P47871 26-477, species assumed): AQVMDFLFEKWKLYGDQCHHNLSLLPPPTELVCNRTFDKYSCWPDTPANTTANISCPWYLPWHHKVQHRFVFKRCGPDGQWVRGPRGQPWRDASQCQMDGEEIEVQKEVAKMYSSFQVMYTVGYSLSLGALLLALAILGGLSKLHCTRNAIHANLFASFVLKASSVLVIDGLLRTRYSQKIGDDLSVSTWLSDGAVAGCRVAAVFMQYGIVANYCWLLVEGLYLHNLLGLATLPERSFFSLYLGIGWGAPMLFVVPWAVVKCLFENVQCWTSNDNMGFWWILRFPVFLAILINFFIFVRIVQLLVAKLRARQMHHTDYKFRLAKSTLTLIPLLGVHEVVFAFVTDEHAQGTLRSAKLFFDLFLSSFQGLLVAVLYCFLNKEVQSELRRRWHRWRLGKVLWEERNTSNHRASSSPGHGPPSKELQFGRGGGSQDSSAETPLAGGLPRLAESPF

Structure (SMILES)	EC50 (GIPR; HEK293-GIPR cells, cAMP, read-out: GIPR (EC50)) [nM]	EC50 (GLP-1R; HEK293-GLP-1R cells, cAMP, read-out: GLP-1R (EC50)) [nM]	EC50 (GCGR; HEK293-GCGR cells, cAMP, read-out: GCGR (EC50)) [nM]	Tmax [1] [h]	half-life ([1]; 50 nmol/kg) [h]	EC50 (GIPR) [nM]	Blood glucose level (mM) 15 min ([2]; 3 nmol/kg s.c. single dose, 24 h after administration, 15 min after 2 g/kg glucose i.p.) [mM]	Blood glucose level (mM) 30 min ([2]; 3 nmol/kg s.c. single dose, 24 h after administration, 30 min after 2 g/kg glucose i.p.) [mM]	Blood glucose level (mM) 60 min ([2]; 3 nmol/kg s.c. single dose, 24 h after administration, 60 min after 2 g/kg glucose i.p.) [mM]	Blood glucose level (mM) 90 min ([2]; 3 nmol/kg s.c. single dose, 24 h after administration, 90 min after 2 g/kg glucose i.p.) [mM]	Blood glucose level (mM) 0 min ([2]; 3 nmol/kg s.c. single dose, 24 h after administration, basal before 2 g/kg glucose i.p.) [mM]	improvement of glucose tolerance compared with LY3298176 ([2]; 24 hours after a single administration, 3 nmol/kg)	AUC0-90 min ([2]; blood glucose AUC, 3 nmol/kg s.c. single dose, 24 h after administration, 2 g/kg glucose i.p.)	EC50 (GLP-1R) [nM]	EC50 (GCGR) [nM]	AUC(0-inf) [1, 3] [ng·h/mL]	AUC(0-t) [1, 3] [ng·h/mL]	Cmax [1, 3] [ng/mL]	half-life ([1]; 50 nmol/kg single subcutaneous injection, plasma, read-out: T1/2 (converted)) [h]	Tmax ([1]; 50 nmol/kg single subcutaneous injection, plasma, read-out: Tmax) [h]
CC[C@H](C)[C@H](NC(=O)[C@H](Cc1ccccc1)NC(=O)[C@H](C)NC(=O)[C@H](CCC(N)=O)NC(=O)[C@H](CCC(N)=O)NC(=O)[C@H](CCCNC(=N)N)NC(=O)[C@H](CCCCNC(=O)COCCOCCNC(=O)CC[C@H](NC(=O)CCCCCCCCCCCCCCCCCCC(=O)O)C(=O)O)NC(=O)[C@H](CCC(=O)O)NC(=O)[C@H](CC(=O)O)NC(=O)[C@H](CC(C)C)NC(=O)[C@H](CC(C)C)NC(=O)[C@@H](NC(=O)[C@H](CO)NC(=O)[C@H](Cc1ccc(O)cc1)NC(=O)[C@H](CC(=O)O)NC(=O)[C@H](CO)NC(=O)[C@@H](NC(=O)[C@](C)(Cc1ccccc1F)NC(=O)[C@@H](NC(=O)CNC(=O)[C@H](Cc1c[nH]cn1)NC(=O)C(C)(C)NC(=O)[C@@H](N)Cc1ccc(O)cc1)[C@@H](C)O)[C@@H](C)O)[C@@H](C)CC)C(=O)N[C@@H](CCC(=O)O)C(=O)N[C@@H](Cc1ccc(O)cc1)C(=O)N[C@@H](CC(C)C)C(=O)N[C@@H](CC(C)C)C(=O)N[C@@H](CCC(=O)O)C(=O)NCC(=O)NCC(=O)N1CCC[C@H]1C(=O)N[C@@H](CO)C(=O)N[C@@H](CO)C(=O)NCC(=O)N[C@@H](C)C(=O)N1CCC[C@H]1C(=O)N1CCC[C@H]1C(=O)N1CCC[C@H]1C(=O)N[C@@H](CO)C(=O)O [HEC-PT93]	0.159	1.17	0.354	25 ± 2.3	19 ± 1.2															
CC[C@H](C)[C@H](NC(=O)[C@H](Cc1ccccc1)NC(=O)[C@H](C)NC(=O)[C@H](CCC(N)=O)NC(=O)[C@H](CCC(N)=O)NC(=O)[C@H](CCCNC(=N)N)NC(=O)[C@H](CCCCNC(=O)COCCOCCNC(=O)CC[C@H](NC(=O)CCCCCCCCCCCCCCCCC(=O)O)C(=O)O)NC(=O)[C@H](CCC(=O)O)NC(=O)[C@H](CC(=O)O)NC(=O)[C@H](CC(C)C)NC(=O)[C@H](CC(C)C)NC(=O)[C@@H](NC(=O)[C@H](CO)NC(=O)[C@H](Cc1ccc(O)cc1)NC(=O)[C@H](CC(=O)O)NC(=O)[C@H](CO)NC(=O)[C@@H](NC(=O)[C@](C)(Cc1ccccc1F)NC(=O)[C@@H](NC(=O)CNC(=O)[C@H](CCC(N)=O)NC(=O)C(C)(C)NC(=O)[C@@H](N)Cc1ccc(O)cc1)[C@@H](C)O)[C@@H](C)O)[C@@H](C)CC)C(=O)N[C@@H](CCC(=O)O)C(=O)N[C@@H](Cc1ccc(O)cc1)C(=O)N[C@@H](CC(C)C)C(=O)N[C@@H](CC(C)C)C(=O)N[C@@H](CCC(=O)O)C(=O)NCC(=O)NCC(=O)N1CCC[C@H]1C(=O)N[C@@H](CO)C(=O)N[C@@H](CO)C(=O)NCC(=O)N[C@@H](C)C(=O)N1CCC[C@H]1C(=O)N1CCC[C@H]1C(=O)N1CCC[C@H]1C(=O)N[C@@H](CO)C(=O)O [HEC-PT82]						0.0831	12.4 ± 4.3	7.6 ± 1.5	6.9 ± 0.8	6.6 ± 0.6	3.8 ± 0.6	more effective in improving glucose tolerance than the positive control LY3298176	691.8±116.4^a	0.36	0.615	29400 ± 3050	29100 ± 3030	836 ± 217	17 ± 0.8	8.7 ± 2.3
